Test results published in patent US20100035858A1, “Novel Compositions and Methods for Binding and Inhibiting 5-HT4 Receptor” (Immune Control, Inc., priority 2008, published 2010).
Entries after “also recorded” stand apart in the source; their conditions may differ.

Tests used:
5-HT2A receptor = 5-HT2A receptor (Homo sapiens, UniProt P28223); assay: 5-HT2A receptor binding; details: versus fluphenazine (ICI-1175), FIG. 8
Experimental: (§1) The methods employed in this study have been adapted from the scientific literature to maximize reliability and reproducibility. Where presented, IC50 values were determined by a non-linear, least squares regression analysis using the DATA ANALYSIS TOOLBOX (MDL Information Systems, San Leandro, Calif., USA). Where inhibition constants (Ki) are presented, the Ki values were calculated using the equation of Cheng and Prusoff (Cheng, Y., Prusoff, W. H., Biochem. Pharmacol. 22:3099-3108, 1973) or equivalent using the observed IC50 of the tested compound, the concentration of ligand employed in the assay, and historical values for the KD of the ligand.
(§2) The experiments include contacting a serotonin type 1B, 2A, 2B, 2C, 3, 4, 6, and 7 receptor with a test compound and comparing the level of binding of serotonin or a control ligand with that serotonin type 1B, 2A, 2B, 2C, 3, 4, 6, and 7 receptor with the level of serotonin binding or control ligand binding with an otherwise identical serotonin type 1B, 2A, 2B, 2C, 3, 4, 6, and 7 receptor not contacted with the test compound. […] The skilled artisan would also appreciate, in view of the disclosure provided herein, that standard binding assays known in the art, or those to be developed in the future, can be used to assess the binding of serotonin or a control ligand with a serotonin type 1B. 2A, 2B, 2C, 3, 4, 6, and 7 receptor in the presence or absence of the test compound to identify a useful compound.
(§3) The next set of experiments was designed to assess the selective binding of the test compounds to 5-HT receptors. ICI-848, ICI-1259, and ICI-1260 were tested against fluphenazine (ICI-1175) to determine selective binding to 5-HT receptors.

5-HT1A receptor = biological target: T1, 5-HT1A receptor (Homo sapiens, UniProt P08908); assay: 5-HT1A receptor binding; details: versus fluphenazine (ICI-1175), FIG. 8
T1 sequence (P08908 1-422): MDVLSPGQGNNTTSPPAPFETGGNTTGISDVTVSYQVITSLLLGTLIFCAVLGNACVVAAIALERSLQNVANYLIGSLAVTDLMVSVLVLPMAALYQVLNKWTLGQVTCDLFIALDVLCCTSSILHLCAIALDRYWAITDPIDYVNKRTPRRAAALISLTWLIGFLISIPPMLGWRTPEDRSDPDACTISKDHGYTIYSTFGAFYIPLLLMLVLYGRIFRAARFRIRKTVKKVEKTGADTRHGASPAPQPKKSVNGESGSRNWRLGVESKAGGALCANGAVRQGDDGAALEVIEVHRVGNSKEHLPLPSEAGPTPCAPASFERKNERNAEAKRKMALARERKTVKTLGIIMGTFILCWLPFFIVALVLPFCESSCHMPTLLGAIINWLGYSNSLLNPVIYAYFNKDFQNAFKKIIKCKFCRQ
Experimental: as §1, §3

[1] = tested on: B-cell neoplastic cell line RPMI 8226; assay: Inhibition of proliferation of RPMI cells; type: cell-based; details: RPMI cell viability, FIG. 1
Description: The next set of experiments was designed to assess compounds that have low levels of brain penetration for the ability of the test compounds to inhibit cellular proliferation. An exemplary in vitro assay is to screen for the ability of the test compounds to inhibit proliferation of the B-cell neoplastic cell line RPMI 8226 (a plasmacytoma derived from a multiple myeloma patient (Matsuoka, et al., 1967, Proc. Soc. Exp. Biol. Med. 125: 1246-1250). However other cell line can be used such as, U266 (established from an IgE-secreting myeloma patient (Nilsson, et al., 1970, Clin. Exp. Immunol., 7: 477-489) and ARH77 (an EBV transformed plasma cell leukemia (Burk, et al., 1978, Cancer Res. 38: 2508-2513).
FIG. 1 is a graph depicting the effects on the test compounds on RPMI cell viability.

[2] = tested on: rat model of collagen-induced arthritis; assay: Rat model of collagen-induced arthritis, ankle diameter; type: in vivo; details: for reduction of ankle diameter: 10 mg/kg ip daily, about 3 days, caliper measurement; for efficacy in reducing ankle diameter compared with Enbrel: rheumatoid arthritis rat model, versus Enbrel
Experimental: The next set of experiments was designed to test the ability of the compounds of the invention on a rat model of collagen-induced arthritis. Briefly, Female Lewis rats were immunized with bovine type 2 collagen 2 mg/mL in 0.01N HAc mixed 1:1 w/ FIA injected id 0.1 mL at each of three sites on back (Rosloniec, E. F., A. H. Kang, L. K. Myers, M. A. Cremer. 1996. Collagen-induced arthritis. R. Coico, and E. Shevach, eds. Current Protocols in Immunology 15.5.1. Weily & Sons, New York.).
FIG. 2 depicts a schematic of the collagen-induced arthritis protocol. Briefly, a test compound of the invention is delivered ip at 10 mg/kg daily, for about 3 days.
FIG. 4 depicts ICI 1260, 1259, 848, 849, 761, 715, and 847 with respect to Enbrel. Additional testing for the effectiveness of compounds ICI 1260, 1259, 848, 849, 761, 715, and 847 at various concentrations (10 mg/kg, 2 mg/kg, 0.4 mg/kg) were conducted, as illustrated in FIGS. 5A-5G. A dose response curve was constructed to illustrate the efficacy of the seven compounds (FIG. 6).

[3] = biological target: histamine type 1 receptor (Homo sapiens, UniProt P35367); assay: Binding to non-5-HT receptors: histamine type 1 receptor; details: FIG. 12
Experimental: as §1
The next set of experiments was designed to assess the selective binding of the test compounds to non-5-HT receptors. The compounds tested are as follows: ICI-735, 848, 849, 1259, and 1260. […] It was also observed that the compounds that bound well to 5-HT4 receptor also bound well to histamine type 1 receptor.

5-HT4 receptor = 5-HT4 receptor (Homo sapiens, UniProt Q13639); assay: 5-HT4 receptor binding; details: versus fluphenazine (ICI-1175), FIG. 8
Experimental: as §1, §2, §3
The next set of experiments was designed to assess the Ki values of the tested compounds.

Female Lewis rats = assay: Toxicity in Female Lewis rats; type: in vivo; details: 100 mg/kg ip, in comparison with PBS control
Experimental: The next set of experiments was designed to determine the toxicity of the compounds. Each compound was administered to Female Lewis rats at a dose of 100 mg/kg via ip administration.

5-HT2A receptor, sequence (P28223 whole entry): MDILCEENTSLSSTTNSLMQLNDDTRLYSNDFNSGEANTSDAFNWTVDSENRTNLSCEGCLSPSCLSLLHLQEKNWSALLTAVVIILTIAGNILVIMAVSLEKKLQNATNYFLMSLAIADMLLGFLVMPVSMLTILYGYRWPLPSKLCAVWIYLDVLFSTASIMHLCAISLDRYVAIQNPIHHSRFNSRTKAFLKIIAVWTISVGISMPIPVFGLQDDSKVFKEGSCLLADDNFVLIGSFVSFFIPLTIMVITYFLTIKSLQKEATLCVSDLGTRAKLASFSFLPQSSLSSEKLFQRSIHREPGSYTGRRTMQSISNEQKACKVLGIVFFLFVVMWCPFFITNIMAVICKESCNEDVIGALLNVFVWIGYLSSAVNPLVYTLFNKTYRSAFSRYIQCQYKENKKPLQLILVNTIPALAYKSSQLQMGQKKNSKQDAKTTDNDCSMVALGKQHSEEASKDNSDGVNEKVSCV
5-HT4 receptor, sequence (Q13639 whole entry): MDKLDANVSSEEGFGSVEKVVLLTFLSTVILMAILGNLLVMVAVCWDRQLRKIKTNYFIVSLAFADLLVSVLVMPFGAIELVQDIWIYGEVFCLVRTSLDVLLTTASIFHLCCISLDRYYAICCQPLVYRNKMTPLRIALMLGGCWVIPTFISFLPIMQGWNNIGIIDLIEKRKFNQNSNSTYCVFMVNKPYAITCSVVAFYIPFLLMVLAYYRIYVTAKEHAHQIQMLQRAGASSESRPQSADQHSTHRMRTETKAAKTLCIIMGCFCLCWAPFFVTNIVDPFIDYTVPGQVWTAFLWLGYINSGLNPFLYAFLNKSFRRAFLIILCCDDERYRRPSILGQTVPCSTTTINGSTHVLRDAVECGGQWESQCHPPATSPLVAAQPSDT
histamine type 1 receptor, sequence (P35367 whole entry): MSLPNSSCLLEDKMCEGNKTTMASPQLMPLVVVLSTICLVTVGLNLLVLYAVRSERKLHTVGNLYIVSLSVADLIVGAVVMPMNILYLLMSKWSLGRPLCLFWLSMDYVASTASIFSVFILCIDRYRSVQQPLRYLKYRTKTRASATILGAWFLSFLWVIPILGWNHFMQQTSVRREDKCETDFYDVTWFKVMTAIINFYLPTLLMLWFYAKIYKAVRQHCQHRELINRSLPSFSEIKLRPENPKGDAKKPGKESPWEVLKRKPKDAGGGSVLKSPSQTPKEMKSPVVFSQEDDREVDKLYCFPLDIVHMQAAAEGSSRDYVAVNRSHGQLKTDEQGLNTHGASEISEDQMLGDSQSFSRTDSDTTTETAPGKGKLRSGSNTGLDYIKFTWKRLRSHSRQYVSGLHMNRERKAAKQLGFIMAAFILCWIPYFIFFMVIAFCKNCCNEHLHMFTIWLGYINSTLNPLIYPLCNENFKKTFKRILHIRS

SMILES | binding to 5-HT2A receptor compared to fluphenazine (5-HT2A receptor) | binding to 5-HT1A receptor compared to fluphenazine (5-HT1A receptor) | ability to inhibit proliferation of RPMI cells [1] | reduction of ankle diameter ([2]; listed as ICI-1259) | efficacy in reducing ankle diameter compared with Enbrel [2] | binding to histamine type 1 receptor [3] | binding to 5-HT4 receptor compared to fluphenazine (5-HT4 receptor) | toxicity (Female Lewis rats) | ability to inhibit proliferation of RPMI cells ([1]; listed as ICI-1260) | reduction of ankle diameter ([2]; listed as ICI-1260)
CNCC(=O)NCCCN1CCC(CCCN2c3ccccc3Sc3ccc(C(F)(F)F)cc32)CC1 [ICI-01259] | decreased binding | decreased binding | able to inhibit the proliferation of RPMI cells | decrease the ankle diameter to a desirable level; also recorded: most desirable reduction of ankle diameter | more effective in reducing the ankle diameter than Enbrel | able to bind histamine type 1 receptor | increased binding | not toxic |  | 
NCC(=O)NCCCN1CCC(CCCN2c3ccccc3Sc3ccc(C(F)(F)F)cc32)CC1 [ICI-01260] | decreased binding | decreased binding |  |  | more effective in reducing the ankle diameter than Enbrel | able to bind histamine type 1 receptor | increased binding | not toxic | able to inhibit the proliferation of RPMI cells | decrease the ankle diameter to a desirable level; also recorded: most desirable reduction of ankle diameter
